In patent US20220088146A1, “Melanocortin Receptor-Specific Peptide Formulations and Methods for Gastrointestinal Tract-Specific Delivery” (Palatin Technologies, Inc., priority 2018, published 2022):
Bridge positions count the residues as written; N and C are the ends. Square brackets hold non-standard residues; d marks the D form. Peptide text beside a SMILES is read from it. dPhe(3-Cl) = N[C@H](Cc1cccc(Cl)c1)C(=O)O; dPhe(4-Me) = Cc1ccc(C[C@@H](N)C(=O)O)cc1; Nle = CCCC[C@H](N)C(=O)O; Orn = NCCC[C@H](N)C(=O)O; Dab = NCC[C@H](N)C(=O)O

The compounds below were run against hMC1r (Homo sapiens, UniProt Q01726) (assay: Assay for agonist activity: cAMP accumulation in HBL melanoma cells). Settings: HBL, compared to NDP-α-MSH as 100%, read-out: MC-1 Emax (average; cAMP HBL).
Chain of hMC1r (Q01726 whole entry): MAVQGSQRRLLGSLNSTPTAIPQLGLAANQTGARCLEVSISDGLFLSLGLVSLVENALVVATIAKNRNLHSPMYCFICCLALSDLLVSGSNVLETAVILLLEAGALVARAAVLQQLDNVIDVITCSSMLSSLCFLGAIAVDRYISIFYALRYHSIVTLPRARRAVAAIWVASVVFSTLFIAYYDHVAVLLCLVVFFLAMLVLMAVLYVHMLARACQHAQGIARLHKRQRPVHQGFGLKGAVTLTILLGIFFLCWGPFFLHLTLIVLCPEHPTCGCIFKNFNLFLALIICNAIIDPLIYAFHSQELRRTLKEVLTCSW
Type: cell-based
Set-up: endogenous in cells; host or cells: HBL human melanoma cells
Method: 8.2 Assay for Agonist Activity.
Confluent HBL cells that express hMC1r or HEK-293 cells that express recombinant hMC4r were detached from culture plates by incubation in enzyme-free cell dissociation buffer. Dispersed cells were suspended in Earle's Balanced Salt Solution containing 10 mM HEPES (pH 7.5), 1 mM MgCl2, 1 mM glutamine, 0.5% albumin and 0.3 mM 3-isobutyl-1-methyl-xanthine (IBMX), a phosphodiesterase inhibitor. The cells were plated in 96-well plates at a density of 0.4×10^5 cells per well for HBL cells and 0.5×10^5 cells per well for HEK-293 cells and pre-incubated for 10 minutes. Cells were exposed for 15 minutes at 37° C. to peptides of the present invention dissolved in DMSO (final DMSO concentration of 1%) at a concentration range of 0.05-5000 nM in a total assay volume of 200 μL. […] Data analysis was performed by nonlinear regression analysis with Graph-Pad Prism® software.
All results are expressed in nM except for Emax values, which are percentage values. Peptides with the captioned primary sequence were synthesized and purified as described in Section 7 above, with the resulting peptide having the structure depicted.
CCCC[C@H](NC(C)=O)C(=O)N[C@H]1CCC(=O)NCC[C@@H](C(=O)N[C@H](Cc2c[nH]c3ccccc23)C(N)=O)NC(=O)[C@H](CCCNC(=N)N)NC(=O)[C@@H](Cc2ccccc2)NC(=O)[C@H](Cc2c[nH]cn2)NC1=O [Example 9.7, Ac-Nle-cyclo(Glu-His-D-Phe-Arg-Dab)-D-Trp-NH2] gave an Emax of 93%. CCCC[C@H](NC(C)=O)C(=O)N[C@H]1CCC(=O)NCC[C@@H](C(=O)N[C@@H](Cc2c[nH]c3ccccc23)C(N)=O)NC(=O)[C@H](CCCNC(=N)N)NC(=O)[C@@H](Cc2ccccc2)NC(=O)[C@H](CCCNC(=N)N)NC1=O [Example 9.37, Ac-Nle-cyclo(Glu-Arg-D-Phe-Arg-Dab)-Trp-NH2] was tested, and the Emax was 100%. CCCC[C@H](NC(C)=O)C(=O)N[C@H]1CCC(=O)NCC[C@@H](C(=O)N[C@@H](Cc2ccc3ccccc3c2)C(N)=O)NC(=O)[C@H](CCCNC(=N)N)NC(=O)[C@@H](Cc2ccccc2)NC(=O)[C@H](Cc2c[nH]cn2)NC1=O [Example 9.10, Ac-Nle-cyclo(Glu-His-D-Phe-Arg-Dab)-Nal 2-NH2] was tested, and the Emax was 83%. For CCCC[C@H](NC(C)=O)C(=O)N[C@H]1CCC(=O)NCC[C@@H](C(N)=O)NC(=O)[C@H](CCCNC(=N)N)NC(=O)[C@@H](Cc2ccc(C)cc2)NC(=O)[C@H](CCCN)NC1=O [Example 9.63, Ac-Nle-cyclo(Glu-Orn-D-Phe(4-Me)-Arg-Dab)-NH2] (Ac-[Nle]E[Orn][dPhe(4-Me)]R[Dab]-NH2; lactam 2-6), the Emax was 96%. CCCC[C@H](NC(C)=O)C(=O)N[C@H]1CCC(=O)NCC[C@@H](C(=O)N[C@@H](Cc2c[nH]c3ccccc23)C(N)=O)NC(=O)CNC(=O)[C@@H](Cc2ccccc2)NC(=O)[C@H](Cc2c[nH]cn2)NC1=O [Example 9.34, Ac-Nle-cyclo(Glu-His-D-Phe-Gly-Dab)-Trp-NH2] (Ac-[Nle]EH[dF]G[Dab]W-NH2; lactam 2-6) gave an Emax of 59%. In the case of N=C(N)NCCC[C@@H]1NC(=O)[C@@H](Cc2ccccc2)NC(=O)[C@H](Cc2c[nH]cn2)NC(=O)[C@@H](NC(=O)C2CCCCC2)CCC(=O)NCC[C@@H](C(=O)N[C@@H](Cc2c[nH]c3ccccc23)C(N)=O)NC1=O [Example 9.20, cyclo-hexanoyl-cyclo(Glu-His-D-Phe-Arg-Dab)-Trp-NH2], the Emax is reported as 79%. CC(=O)N[C@H](Cc1ccccc1)C(=O)N[C@H]1CCC(=O)NCC[C@@H](C(=O)N[C@@H](Cc2c[nH]c3ccccc23)C(N)=O)NC(=O)[C@H](CCCNC(=N)N)NC(=O)[C@@H](Cc2ccccc2)NC(=O)[C@H](Cc2c[nH]cn2)NC1=O [Example 9.12, Ac-D-Phe-cyclo(Glu-His-D-Phe-Arg-Dab)-Trp-NH2] gave an Emax of 75%. With CCCC[C@H](NC(C)=O)C(=O)N[C@H]1CCC(=O)NCC[C@@H](C(N)=O)NC(=O)[C@H](CCCNC(=N)N)NC(=O)[C@@H](Cc2cccc(Cl)c2)NC(=O)[C@H](CCCN)NC1=O [Example 9.58, Ac-Nle-cyclo(Glu-Orn-D-Phe(3-Cl)-Arg-Dab)-NH2] (Ac-[Nle]E[Orn][dPhe(3-Cl)]R[Dab]-NH2; lactam 2-6) the Emax was 86%. Compound N=C(N)NCCC[C@@H]1NC(=O)[C@@H](Cc2ccccc2)NC(=O)[C@H](Cc2c[nH]cn2)NC(=O)[C@@H](NC(=O)C2CC2)CCC(=O)NCC[C@@H](C(=O)N[C@@H](Cc2c[nH]c3ccccc23)C(N)=O)NC1=O [Example 9.19, cyclo-propanoyl-cyclo(Glu-His-D-Phe-Arg-Dab)-Trp-NH2] has an Emax of 83%. With CCCC[C@H](NC(C)=O)C(=O)N[C@H]1CCC(=O)NCC[C@@H](C(=O)N[C@@H](Cc2c[nH]c3ccccc23)C(N)=O)NC(=O)[C@H](CCCNC(=N)N)NC(=O)[C@@H](Cc2ccccc2)NC(=O)[C@H](C)NC1=O [Example 9.36, Ac-Nle-cyclo(Glu-Ala-D-Phe-Arg-Dab)-Trp-NH2] the Emax was 86%. Compound CCCCCCC(=O)N[C@H]1CCC(=O)NCC[C@@H](C(=O)N[C@@H](Cc2c[nH]c3ccccc23)C(N)=O)NC(=O)[C@H](CCCNC(=N)N)NC(=O)[C@@H](Cc2ccccc2)NC(=O)[C@H](Cc2c[nH]cn2)NC1=O [Example 9.18, CH3—(CH2)5—C(═O)-cyclo(Glu-His-D-Phe-Arg-Dab)-Trp-NH2] has an Emax of 87%.
